# Assay results from ChEMBL document CHEMBL1909046, “DrugMatrix in vitro pharmacology data”.
# What was measured:
# [1] = DRUGMATRIX: GABAA, Flunitrazepam, Central radioligand binding (ligand: [3H] Flunitrazepam); type: cell membranes, Rattus norvegicus, Wistar, Brain, Membrane; conditions: Not Active = under 50% inhibition at 10 µM
# Caspase-1 = molecular target: T1, Caspase-1 (Homo sapiens, UniProt P29466); set-up: species or system Escherichia coli;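 note: Caspase-1 enzyme inhibition assay with a peptide substrate; in other assays of this panel Not Active means under 50% inhibition at 10 µM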
# T1 sequence (P29466 whole entry): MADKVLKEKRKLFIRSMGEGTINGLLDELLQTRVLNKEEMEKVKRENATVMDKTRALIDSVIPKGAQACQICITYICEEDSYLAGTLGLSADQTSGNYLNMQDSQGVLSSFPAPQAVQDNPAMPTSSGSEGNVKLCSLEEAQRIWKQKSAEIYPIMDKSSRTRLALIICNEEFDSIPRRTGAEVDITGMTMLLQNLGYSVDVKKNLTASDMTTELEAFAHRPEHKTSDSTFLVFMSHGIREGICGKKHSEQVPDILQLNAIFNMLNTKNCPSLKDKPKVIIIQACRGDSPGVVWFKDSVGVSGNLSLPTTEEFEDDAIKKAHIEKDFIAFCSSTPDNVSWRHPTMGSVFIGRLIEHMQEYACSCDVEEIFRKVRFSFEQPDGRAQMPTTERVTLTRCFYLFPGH
# [2] = molecular target: T2, 5-hydroxytryptamine receptor 1A (Rattus norvegicus, UniProt P19327); type: cell membranes, CHO-K1, Membrane; conditions: for Ki: read-out: Ki; for all read-outs here: in other assays of this panel Not Active means under 50% inhibition at 10 µM
# T2 sequence (P19327 whole entry): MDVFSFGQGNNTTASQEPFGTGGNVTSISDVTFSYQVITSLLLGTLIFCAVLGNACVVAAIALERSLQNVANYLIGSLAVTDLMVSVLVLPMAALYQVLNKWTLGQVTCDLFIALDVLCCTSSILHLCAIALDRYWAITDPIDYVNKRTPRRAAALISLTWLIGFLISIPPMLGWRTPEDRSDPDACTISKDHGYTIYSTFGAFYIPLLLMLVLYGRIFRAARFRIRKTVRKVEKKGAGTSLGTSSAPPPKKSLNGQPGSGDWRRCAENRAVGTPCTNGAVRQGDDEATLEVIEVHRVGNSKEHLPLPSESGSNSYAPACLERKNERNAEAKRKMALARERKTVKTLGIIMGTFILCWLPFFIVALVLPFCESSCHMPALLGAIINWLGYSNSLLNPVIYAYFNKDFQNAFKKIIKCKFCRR
# [3] = DRUGMATRIX: Imidazoline I2, Central radioligand binding (ligand: [3H] Idazoxan); type: cell membranes, Rattus norvegicus, Wistar, Cerebral cortex, Membrane; conditions: Not Active = under 50% inhibition at 10 µM
# D(1A) dopamine receptor = D(1A) dopamine receptor (Homo sapiens, UniProt P21728); test: DRUGMATRIX: Dopamine D1 radioligand binding (ligand: [3H] SCH-23390); type: cell membranes, CHO, Membrane; conditions: Not Active = under 50% inhibition at 10 µM; for Ki: read-out: Ki
# [4] = molecular target: Sigma non-opioid intracellular receptor 1 (Homo sapiens, UniProt Q99720); test: DRUGMATRIX: Sigma1 radioligand binding (ligand: [3H] Haloperidol); type: cell membranes, Jurkat, Membrane; conditions: Not Active = under 50% inhibition at 10 µM; for Ki: read-out: Ki
# Sigma non-opioid intracellular receptor 1, sequence (Q99720 whole entry): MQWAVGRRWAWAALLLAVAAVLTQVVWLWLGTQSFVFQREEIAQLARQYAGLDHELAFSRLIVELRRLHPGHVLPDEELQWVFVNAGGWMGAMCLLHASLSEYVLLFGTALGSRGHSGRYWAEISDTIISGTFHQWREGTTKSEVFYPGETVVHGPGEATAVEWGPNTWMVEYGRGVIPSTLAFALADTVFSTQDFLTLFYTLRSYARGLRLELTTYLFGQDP
# D(1A) dopamine receptor, sequence (P21728 whole entry): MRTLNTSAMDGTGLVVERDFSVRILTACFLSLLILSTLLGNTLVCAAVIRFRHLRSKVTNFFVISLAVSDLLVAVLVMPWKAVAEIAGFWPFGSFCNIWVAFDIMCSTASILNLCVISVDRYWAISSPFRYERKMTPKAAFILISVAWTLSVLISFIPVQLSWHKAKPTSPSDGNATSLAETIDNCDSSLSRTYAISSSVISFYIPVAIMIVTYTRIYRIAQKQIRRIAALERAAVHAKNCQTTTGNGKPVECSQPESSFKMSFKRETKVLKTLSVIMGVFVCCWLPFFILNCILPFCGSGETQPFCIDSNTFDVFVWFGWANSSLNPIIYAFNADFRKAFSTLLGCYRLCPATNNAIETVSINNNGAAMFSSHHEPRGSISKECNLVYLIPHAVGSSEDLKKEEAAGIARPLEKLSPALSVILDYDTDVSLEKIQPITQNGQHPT
compound,measurement,setting,value
C[C@H]1c2cccc(O)c2C(=O)C2=C(O)[C@]3(O)C(=O)C(C(N)=O)=C(O)[C@@H](N(C)C)[C@@H]3[C@@H](O)[C@@H]21.O [DOXYCYCLINE],IC50,[1],Not Active
same,Ki,[1],Not Active
same,IC50,Caspase-1,Not Active
same,IC50,[2]; cho-k1,Not Active
same,IC50,[3],Not Active
same,Ki,[3],Not Active
same,IC50,D(1A) dopamine receptor; cho,Not Active
same,IC50,[4]; jurkat,Not Active
CNCCCN1c2ccccc2CCc2ccccc21 [DESIPRAMINE],IC50,[1],Not Active
same,Ki,[1],Not Active
same,IC50,Caspase-1,Not Active
same,IC50,[2]; cho-k1,Not Active
same,IC50,[3],Not Active
same,Ki,[3],Not Active
same,IC50,D(1A) dopamine receptor; cho,Not Active
same,IC50,[4]; jurkat,Not Active
C[C@H](CS)C(=O)N1CCC[C@H]1C(=O)O [CAPTOPRIL],IC50,[1],Not Active
same,Ki,[1],Not Active
same,IC50,Caspase-1,Not Active
same,IC50,[2]; cho-k1,Not Active
same,IC50,[3],Not Active
same,Ki,[3],Not Active
same,IC50,D(1A) dopamine receptor; cho,Not Active
same,IC50,[4]; jurkat,Not Active
CC(O)CO (stereo unspecified) [PROPYLENE GLYCOL],IC50,[1],Not Active
same,Ki,[1],Not Active
same,IC50,Caspase-1,Not Active
same,IC50,[2]; cho-k1,Not Active
same,IC50,[3],Not Active
same,Ki,[3],Not Active
same,IC50,D(1A) dopamine receptor; cho,Not Active
same,IC50,[4]; jurkat,Not Active
Cc1c(O)c(=O)ccn1C [DEFERIPRONE],IC50,[1],Not Active
same,Ki,[1],Not Active
same,IC50,Caspase-1,Not Active
same,IC50,[2]; cho-k1,Not Active
same,IC50,[3],Not Active
same,Ki,[3],Not Active
same,IC50,D(1A) dopamine receptor; cho,Not Active
same,IC50,[4]; jurkat,Not Active
CC(C)[C@@]1(NC(=O)[C@@H]2C[C@@H]3c4cccc5[nH]cc(c45)C[C@H]3N(C)C2)O[C@@]2(O)[C@@H]3CCCN3C(=O)[C@H](Cc3ccccc3)N2C1=O.CS(=O)(=O)O [DIHYDROERGOCRISTINE MESYLATE],IC50,[1],Not Active
same,Ki,[1],Not Active
same,IC50,Caspase-1,Not Active
same,IC50,[2]; read-out: IC50,0.722 nM
same,Ki,[2],0.412 nM
same,IC50,[3]; read-out: IC50,5.43 nM
same,Ki,[3]; read-out: Ki,3.62 nM
same,IC50,D(1A) dopamine receptor; read-out: IC50,1180 nM
same,Ki,D(1A) dopamine receptor,589 nM
same,IC50,[4]; jurkat,Not Active
C1CCC(C(CC2CCCCN2)C2CCCCC2)CC1 (stereo unspecified) [PERHEXILINE],IC50,[1],Not Active
same,Ki,[1],Not Active
same,IC50,Caspase-1,Not Active
same,IC50,[2]; cho-k1,Not Active
same,IC50,[3],Not Active
same,Ki,[3],Not Active
same,IC50,D(1A) dopamine receptor; cho,Not Active
same,IC50,[4]; read-out: IC50,2600 nM
same,Ki,[4],1090 nM
c1ccc2c(c1)c1cccc3ccc4cccc2c4c31 [BENZO[E]PYRENE],IC50,[1],Not Active
same,Ki,[1],Not Active
same,IC50,Caspase-1,Not Active
same,IC50,[2]; cho-k1,Not Active
same,IC50,[3],Not Active
same,Ki,[3],Not Active
same,IC50,D(1A) dopamine receptor; cho,Not Active
same,IC50,[4]; jurkat,Not Active
C[C@]12CC[C@@H]3c4ccc(O)cc4CC[C@H]3[C@@H]1CCC2=O [ESTRONE],IC50,[1],Not Active
same,Ki,[1],Not Active
same,IC50,Caspase-1,Not Active
same,IC50,[2]; cho-k1,Not Active
same,IC50,[3],Not Active
same,Ki,[3],Not Active
same,IC50,D(1A) dopamine receptor; cho,Not Active
same,IC50,[4]; jurkat,Not Active
CNCCc1ccccn1 [BETAHISTINE],IC50,[1],Not Active
same,Ki,[1],Not Active
same,IC50,Caspase-1,Not Active
same,IC50,[2]; cho-k1,Not Active
same,IC50,[3],Not Active
same,Ki,[3],Not Active
same,IC50,D(1A) dopamine receptor; cho,Not Active
same,IC50,[4]; jurkat,Not Active
Cc1ccccc1N1C(=O)c2cc(S(N)(=O)=O)c(Cl)cc2NC1C (stereo unspecified) [METOLAZONE],IC50,[1],Not Active
same,Ki,[1],Not Active
same,IC50,Caspase-1,Not Active
same,IC50,[2]; cho-k1,Not Active
same,IC50,[3],Not Active
same,Ki,[3],Not Active
same,IC50,D(1A) dopamine receptor; cho,Not Active
same,IC50,[4]; jurkat,Not Active
O=C1CC[C@@H](N2C(=O)c3ccccc3C2=O)C(=O)N1,IC50,[1],Not Active
same,Ki,[1],Not Active
same,IC50,Caspase-1,Not Active
same,IC50,[2]; cho-k1,Not Active
same,IC50,[3],Not Active
same,Ki,[3],Not Active
same,IC50,D(1A) dopamine receptor; cho,Not Active
same,IC50,[4]; jurkat,Not Active
Nc1c(Br)cc(Br)cc1CN[C@H]1CC[C@H](O)CC1 [AMBROXOL],IC50,[1],Not Active
same,Ki,[1],Not Active
same,IC50,Caspase-1,Not Active
same,IC50,[2]; cho-k1,Not Active
same,IC50,[3],Not Active
same,Ki,[3],Not Active
same,IC50,D(1A) dopamine receptor; cho,Not Active
same,IC50,[4]; jurkat,Not Active
Nc1nc2c(ncn2COCCO)c(=O)[nH]1 [ACYCLOVIR],IC50,[1],Not Active
same,Ki,[1],Not Active
same,IC50,Caspase-1,Not Active
same,IC50,[2]; cho-k1,Not Active
same,IC50,[3],Not Active
same,Ki,[3],Not Active
same,IC50,D(1A) dopamine receptor; cho,Not Active
same,IC50,[4]; jurkat,Not Active
CN(C)CCCN1c2ccccc2Sc2ccccc21 [PROMAZINE],IC50,[1],Not Active
same,Ki,[1],Not Active
same,IC50,Caspase-1,Not Active
same,IC50,[2]; read-out: IC50,5170 nM
same,Ki,[2],2960 nM
same,IC50,[3]; read-out: IC50,1100 nM
same,Ki,[3]; read-out: Ki,732 nM
same,IC50,D(1A) dopamine receptor; read-out: IC50,2460 nM
same,Ki,D(1A) dopamine receptor,1230 nM
same,IC50,[4]; read-out: IC50,271 nM
same,Ki,[4],114 nM
